Where “and” joins values, the source holds several entries; their conditions need not be identical. Equal values may be shown once. Entries after “also recorded” stand apart in the source; their conditions may differ.
Experiments:
[1] = Second-order reaction kinetics with tetrazine PEG-Tz (UV-Vis absorbance at 525 nm); type: physicochemical; details: 37° C., λabs = 525 nm
Description: (§1) UV-VIS photospectrometic kinetic measurements were performed on a BioTek Synergy HT Microplate Reader (BioTek, USA) in a 96-well plate formate. In further detail, for analysis of reaction kinetics in DMSO and DMSO/H2O (9:1, v/v), stock solutions of benzonorbornadiene derivatives 1-3 (60 mM or 12.5 mM) and tetrazine (15 mM or 2.5 mM) in DMSO were prepared. Final solutions containing tetrazine (2 mM or 0.25 mM) and 1-3 (20 mM, 30 mM, 40 mM and 50 mM or 2.5 mM, 3.75 mM, 5 mM, 6.25 mM) were prepared in 96-well plates and thoroughly mixed at 37° C. for UV-Vis measurements. For analysis of reaction kinetics in DMSO/PBS (3:2, v/v), final solutions containing tetrazine (0.05 mM) and 1-2 (0.5 mM), tetrazine alone (0.05 mM) were prepared in 96-well plates and thoroughly mixed at 37° C. for UV-Vis measurements. The reactions were monitored at 525 nm, which is a local absorbance maximum of tetrazine. All kinetic experiments were run in triplicates. Pseudo-first order curve fitting was performed with Origin 8.0 software using the exponential formula: y=A1×e^kx+y0.

[2] = Second-order reaction kinetics with tetrazine DPTz (UV-Vis absorbance at 525 nm); type: physicochemical; details: for Second-order rate constant (k2): with DPTz, 37° C., λabs = 525 nm
Description: as §1

[3] = Stability in human serum (PBS:Serum 1:1), HPLC; type: in vitro ADME; details: 50 μM in PBS:Serum (1:1), 37° C., 5 up to 48 h, 2 up to 7 days
Description: Stability studies of prodrug 5 in PBS:Serum were performed as follows. Stock solutions of prodrug 5 (2.5 mM) in DMSO were prepared. Aliquots of 5 stock solution (20 μL), 0.01 M PBS (480 μL) and human serum (500 μL) (Sigma-Aldrich, USA) were combined to give final concentrations of 50 μM for the 5 in PBS: Serum (1:1, v/v). The sample was thoroughly mixed and incubated at 37° C. in the dark and subsequently a 50 μL aliquot of the sample was taken at indicated time points (5 min, 6 h, 24 h and 48 h) and quenched by 200 μL ice cold acetonitrile, followed by centrifugation at 13300 rpm for 5 min. The supernatant was injected and analyzed by HPLC at 480 nm.
Stability studies of compound 2 were performed as follows. Stock solutions of 2 (2.5 mM) in DMSO were prepared. Aliquots of 2 stock solution (20 μL), 0.01 M PBS (480 μL) and human serum (500 μL) (Sigma-Aldrich, USA) were combined to give final concentrations of 50 μM for the 2 in PBS: Serum (1:1, v/v). The sample was thoroughly mixed and incubated at 37° C. in the dark and subsequently a 50 μL aliquot of the sample was taken at indicated time points (5 min, 6 h, 24 h, 48 h, 72 h and 7 days) and quenched by 200 μL ice cold acetonitrile, followed by centrifugation at 13300 rpm for 5 min. The supernatant was injected and analyzed by HPLC at 317 nm.

A549 lung cancer cells = assay: Cell proliferation / cytotoxicity assay (CellTiter-Glo); type: cell-based; details: compound alone
Description: Cell proliferation assays were performed on an Envision 2104 Multilabel Reader (PerkinElmer, USA). Specifically, A549 lung cancer cells (ATCC, USA) were maintained in a humidified CO2 (5%) incubator at 37° C. in DMEM (Thermo Fisher, USA) supplemented with 10% fetal bovine serum in the presence of 1% Penicillin-Streptomycin-Glutamine (Thermo Fisher, USA) and 0.2% Normocin (InvivoGen, USA). The cells were plated in 96-well TC treated plates (PerkinElmer, USA) at a 5000 cells/well density 24 h prior to the experiment. Prodrug 5, compound 2 (2 mM in DMSO) and PEG-Tz (40 mM in DMSO) were serially diluted in pre-warmed culture medium. Prodrug 5 and compound 2 are in a series of final concentrations ranging from 0.001 to 10 μM with 200 μM, 100 μM, 50 μM, 25 μM PEG-Tz before the experiment and added to the wells (100 μL final volume per well). Doxorubicin was used as the positive control with same series of concentrations ranging from 0.001 to 10 μM. […] After 72 h incubation at 37° C., cell proliferation was assessed by a CellTiter-Glo® viability assay. Lyophilized CellTiter Glo Substrate (Promega, USA) was dissolved in the CellTiter Glo Buffer to get CellTiter-Glo® Reagent, and from which 100 μL was added to each well. After 15 min incubation at 25° C., the medium was gently measured with Envision 2104 Multilabel Reader (PerkinElmer, USA) to get the luminescent based on quantitation of the ATP present, an indicator of metabolically active cells. The proliferation assay was performed in triplicate (n=3). EC50 values were derived from the normalized cell growth and corresponding sigmoidal curves were fitted and generated with Origin 8.0.

For `CC(=O)N1C2C=CC1(COC(=O)Nc1ccc([N+](=O)[O-])cc1)c1ccccc12` (stereo not drawn) [compound 2], the “Second-order rate constant (k2)” value ([1]; 60% DMSO/PBS (3:2)) was 0.135 M⁻¹ s⁻¹ and 0.135 ± 0.010 M⁻¹ s⁻¹, the “Second-order rate constant (k2)” value ([1]; 90% DMSO/H2O) was 0.020 ± 0.0007 M⁻¹ s⁻¹ and the “Second-order rate constant (k2)” value ([2]; 90% DMSO/H2O) was 0.017 M⁻¹ s⁻¹ and 0.017 ± 0.002 M⁻¹ s⁻¹. The “Second-order rate constant (k2)” value ([2]; DMSO) was 0.010 M⁻¹ s⁻¹ and 0.010 ± 0.0004 M⁻¹ s⁻¹, the “Stability in human serum” value [3] was “completely stable until the end of the analysis at one week” and the “Unspecific payload release in human serum” value [3] was “No free p-Nitroaniline or p-Nitroaniline-containing side products were observed; also recorded: no traces of pNA were formed; also recorded: No background liberation of reporter molecules was observed”.

Compound `COc1cccc2c1C(=O)c1c(O)c3c(c(O)c1C2=O)C[C@@](O)(C(=O)CO)C[C@@H]3O[C@H]1C[C@H](N)[C@H](O)[C@H](C)O1` [Doxorubicin, reference compound] has an EC50 (A549 lung cancer cells; Homo sapiens, A549) of 88 nM and an EC50 (A549 lung cancer cells; Homo sapiens, A549, 72 hour incubation at 37° C.) of 88 ± 31 nM.

For `CC(C)(C)OC(=O)N1C2C=CC1(COC(=O)Nc1ccc([N+](=O)[O-])cc1)c1ccccc12` (stereo not drawn) [compound 3, tert-butyl 1-((((4-nitrophenyl)carbamoyl)oxy)methyl)-1,4-dihydro-1,4-epiminonaphthalene-9-carboxylate], the “Second-order rate constant (k2)” value ([2]; 90% DMSO/H2O) was 0.0084 M⁻¹ s⁻¹ and 0.0084 ± 0.0016 M⁻¹ s⁻¹ and the “Second-order rate constant (k2)” value ([2]; DMSO) was 0.0044 M⁻¹ s⁻¹ and 0.0044 ± 0.00009 M⁻¹ s⁻¹.

For `COCCOCCOCCNC(=O)c1ccc(-c2nncnn2)cc1` [PEG-Tz, N-(2-(2-(2-methoxyethoxy)ethoxy)ethyl)-4-(1,2,4,5-tetrazin-3-yl) benzamide], the EC50 (A549 lung cancer cells; 72 hour incubation at 37° C.) was > 200000 nM and the “Cytotoxicity in A549 cells” value (A549 lung cancer cells; tested concentration range (PEG-Tz 0.02 to 200 μM; 5 0.001 to 10 μM)) was “no obvious toxicity; also recorded: no cytotoxicity”.

In the case of “7-oxo-BNBD [compound 6, reference compound]”, the “Second-order rate constant (k2)” value ([2]; DMSO) is reported as 0.176 M⁻¹ s⁻¹ and 0.176 ± 0.004 M⁻¹ s⁻¹.

For `O=C(Nc1ccc([N+](=O)[O-])cc1)OCC12C=CC(O1)c1ccccc12` (stereo not drawn) [compound 1], the “Second-order rate constant (k2)” value ([1]; 60% DMSO/PBS (3:2)) was 0.190 M⁻¹ s⁻¹ and 0.190 ± 0.029 M⁻¹ s⁻¹, the “Second-order rate constant (k2)” value ([1]; 90% DMSO/H2O) was 0.058 ± 0.0003 M⁻¹ s⁻¹ and the “Decrease of reaction rate with DPTz relative to 7-oxo-BNBD (6)” value ([2]; DMSO) was ~12 fold. For the same compound, the “Second-order rate constant (k2)” value ([2]; 90% DMSO/H2O) was 0.028 M⁻¹ s⁻¹ and 0.028 ± 0.0003 M⁻¹ s⁻¹ and the “Second-order rate constant (k2)” value ([2]; DMSO) was 0.015 M⁻¹ s⁻¹ and 0.015 ± 0.008 M⁻¹ s⁻¹.

Source: patent US11560384B2, “Benzonorbornadiene derivatives and reactions thereof” (University of Utah Research Foundation, priority 2017, dated 2023)
